The MIC is the lowest concentration found to suppress growth. Broadly, the IC50 is the concentration that gives 50% inhibition. Read a low IC50 as greater potency.

Consider 14 compounds from ChEMBL document CHEMBL4257462, “Benzisoxazole: a privileged scaffold for medicinal chemistry” (Medchemcomm, 2017).

In brackets after ≈: the same amount, converted by molar mass.

The subject of assay [1] is Mycobacterium tuberculosis. The assay can be described thus: Antimycobacterial activity against Mycobacterium tuberculosis H37Rv. It counts as functional.
Another assay has as its target D(2) dopamine receptor (Rattus norvegicus, UniProt P61169). The assay can be described thus: Displacement of [3H]methylspiperone from D2 receptor in rat striatal membranes. Format: cell membranes, Striatum, Membrane.
Assay [2] concerns the target 5-hydroxytryptamine receptor 2A (Rattus norvegicus, UniProt P14842). The assay can be described thus: Displacement of [3H]ketanserin from 5-HT2A receptor in rat frontal cortex membranes. It counts as cell membranes, Membrane. (Loss of bound radioactivity is the signal in a displacement assay; it reports binding, not function.)
In a further assay the test system is Geotrichum candidum. Put plainly: Antimicrobial activity against Geotrichum candidum. Format: functional.
Another assay deals with HepG2. The assay can be described thus: Growth inhibition of human HepG2 cells after 24 hrs by MTT assay relative to control. Format: functional. (In general: Tetrazolium dyes change colour on reduction, which living cells bring about.)
Assay [3] has as its target Acetylcholinesterase (Electrophorus electricus, UniProt O42275). The assay can be described thus: Inhibition of electric eel AChE.
Assay [4] has as its target T1, Acetylcholinesterase (Rattus norvegicus, UniProt P37136).
T1 sequence (P37136 whole entry): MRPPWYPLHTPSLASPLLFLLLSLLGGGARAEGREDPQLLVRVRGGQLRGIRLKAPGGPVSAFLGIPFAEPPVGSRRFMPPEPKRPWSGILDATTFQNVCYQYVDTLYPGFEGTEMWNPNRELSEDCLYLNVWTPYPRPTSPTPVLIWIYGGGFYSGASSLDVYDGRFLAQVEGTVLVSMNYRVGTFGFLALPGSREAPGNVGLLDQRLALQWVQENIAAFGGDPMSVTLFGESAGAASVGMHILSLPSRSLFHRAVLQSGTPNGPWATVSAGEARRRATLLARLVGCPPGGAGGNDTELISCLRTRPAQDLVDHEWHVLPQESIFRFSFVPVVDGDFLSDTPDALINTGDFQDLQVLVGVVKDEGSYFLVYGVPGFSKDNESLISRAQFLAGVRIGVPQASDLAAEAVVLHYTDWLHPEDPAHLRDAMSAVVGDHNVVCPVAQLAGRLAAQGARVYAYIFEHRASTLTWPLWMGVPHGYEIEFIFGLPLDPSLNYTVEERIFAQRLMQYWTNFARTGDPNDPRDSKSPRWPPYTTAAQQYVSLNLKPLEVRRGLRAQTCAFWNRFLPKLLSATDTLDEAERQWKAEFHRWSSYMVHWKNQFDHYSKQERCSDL
The assay can be described thus: Inhibition of rat brain AChE.

In assay [5] the target is Acetylcholinesterase (Homo sapiens, UniProt P22303). Put plainly: Inhibition of human serum AChE.
A short description of assay [6]: Inhibition of urease (unknown origin).

Acetylcholinesterase (Homo sapiens, UniProt P22303), sequence (P22303 whole entry): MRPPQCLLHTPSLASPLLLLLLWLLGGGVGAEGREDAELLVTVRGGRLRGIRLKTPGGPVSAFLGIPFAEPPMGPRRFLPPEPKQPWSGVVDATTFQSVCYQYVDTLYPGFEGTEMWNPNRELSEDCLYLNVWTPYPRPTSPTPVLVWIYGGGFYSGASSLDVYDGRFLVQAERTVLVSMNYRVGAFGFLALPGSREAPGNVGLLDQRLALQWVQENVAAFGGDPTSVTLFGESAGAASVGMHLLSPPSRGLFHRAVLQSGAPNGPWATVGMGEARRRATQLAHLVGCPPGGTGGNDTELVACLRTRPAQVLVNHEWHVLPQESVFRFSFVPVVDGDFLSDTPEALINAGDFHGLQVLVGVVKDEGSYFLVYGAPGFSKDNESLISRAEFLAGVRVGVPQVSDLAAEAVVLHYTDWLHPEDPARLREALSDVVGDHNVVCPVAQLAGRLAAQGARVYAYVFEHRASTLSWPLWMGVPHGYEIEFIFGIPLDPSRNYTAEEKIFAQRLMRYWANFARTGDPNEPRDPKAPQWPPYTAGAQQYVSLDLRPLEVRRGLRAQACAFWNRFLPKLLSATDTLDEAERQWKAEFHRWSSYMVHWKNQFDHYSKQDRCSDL
Acetylcholinesterase (Electrophorus electricus, UniProt O42275), sequence (O42275 whole entry): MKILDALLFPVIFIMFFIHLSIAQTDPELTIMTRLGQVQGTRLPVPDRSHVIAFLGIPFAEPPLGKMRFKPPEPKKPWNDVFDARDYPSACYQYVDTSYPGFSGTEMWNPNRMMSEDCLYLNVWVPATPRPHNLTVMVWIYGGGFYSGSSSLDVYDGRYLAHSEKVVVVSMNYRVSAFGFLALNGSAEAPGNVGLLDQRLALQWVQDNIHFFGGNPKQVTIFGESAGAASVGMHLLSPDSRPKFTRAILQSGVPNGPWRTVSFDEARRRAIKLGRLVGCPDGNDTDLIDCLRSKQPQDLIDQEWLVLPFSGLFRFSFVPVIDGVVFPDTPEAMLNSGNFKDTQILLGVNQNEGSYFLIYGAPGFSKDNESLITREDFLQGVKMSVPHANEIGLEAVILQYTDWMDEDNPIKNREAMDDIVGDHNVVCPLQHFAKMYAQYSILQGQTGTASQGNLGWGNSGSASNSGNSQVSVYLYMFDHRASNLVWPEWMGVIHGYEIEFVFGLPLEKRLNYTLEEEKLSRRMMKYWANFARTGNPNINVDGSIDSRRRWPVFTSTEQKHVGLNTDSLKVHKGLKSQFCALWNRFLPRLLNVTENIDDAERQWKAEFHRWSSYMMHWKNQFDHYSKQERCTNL
5-hydroxytryptamine receptor 2A, sequence (P14842 whole entry): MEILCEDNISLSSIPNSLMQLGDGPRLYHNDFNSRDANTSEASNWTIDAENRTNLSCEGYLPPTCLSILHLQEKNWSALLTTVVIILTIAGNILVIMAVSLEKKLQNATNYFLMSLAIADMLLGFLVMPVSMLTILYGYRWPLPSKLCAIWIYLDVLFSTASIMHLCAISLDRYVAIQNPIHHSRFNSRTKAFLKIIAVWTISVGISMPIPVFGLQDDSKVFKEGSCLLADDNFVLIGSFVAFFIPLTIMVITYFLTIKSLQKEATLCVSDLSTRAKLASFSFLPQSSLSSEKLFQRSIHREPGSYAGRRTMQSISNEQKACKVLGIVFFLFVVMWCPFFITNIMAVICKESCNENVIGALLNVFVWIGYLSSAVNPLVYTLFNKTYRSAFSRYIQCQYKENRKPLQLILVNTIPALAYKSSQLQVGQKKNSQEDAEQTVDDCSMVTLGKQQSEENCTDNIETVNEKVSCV
D(2) dopamine receptor, sequence (P61169 whole entry): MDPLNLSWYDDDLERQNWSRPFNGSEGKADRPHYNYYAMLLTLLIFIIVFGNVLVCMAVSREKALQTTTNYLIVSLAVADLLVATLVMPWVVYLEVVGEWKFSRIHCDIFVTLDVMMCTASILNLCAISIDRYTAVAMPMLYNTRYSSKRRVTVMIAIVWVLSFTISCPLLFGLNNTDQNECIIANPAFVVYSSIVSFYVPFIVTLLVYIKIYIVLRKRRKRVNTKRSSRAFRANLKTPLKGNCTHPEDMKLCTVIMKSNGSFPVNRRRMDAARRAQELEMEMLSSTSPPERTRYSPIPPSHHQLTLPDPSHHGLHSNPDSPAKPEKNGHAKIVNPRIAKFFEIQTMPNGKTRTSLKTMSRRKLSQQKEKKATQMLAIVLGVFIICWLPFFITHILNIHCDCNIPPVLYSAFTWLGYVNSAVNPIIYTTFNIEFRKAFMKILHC

Take `O=S(=O)(c1ccccc1)N1CCN(c2noc3ccccc23)CC1`: the MIC in assay [1] was found to be 3.25 µg/mL (≈ 9.46 µM).

Consider `Cc1ccc(S(=O)(=O)N2CCN(c3noc4cccc(Cl)c34)CC2)cc1`, for which, in [1], it took 6.25 µg/mL (≈ 15.9 µM) to inhibit growth (MIC). On to `O=C1c2ccc(OCCCN3CCC(c4noc5cc(F)ccc45)CC3)cc2OCC1CO` (centres undefined), for which the IC50 at D(2) dopamine receptor is 17 nM; in assay [2], 6.2 nM.

Consider `O=C(c1ccccc1)N(C(=O)c1ccccc1)c1onc2ccccc12`, for which the MIC in the assay with Geotrichum candidum turned out to be 584 µM (≈ 200 µg/mL). `O=C(c1c(F)cccc1F)N1CCC(c2noc3cc(F)ccc23)CC1`: the “growth inhibition (GI)” value with HepG2 is 42.06%. For the compound `Fc1ccc2c(C3CCN(CCN4CCCC4)CC3)noc2c1`, the figures for the IC50 against Acetylcholinesterase [3], at Acetylcholinesterase [4] and against Acetylcholinesterase [5] were 2510 nM, 5300 nM and 3290 nM, respectively.

On to `O=C(N1CCCC1)N1CCC(c2noc3cc(F)ccc23)CC1`, for which the “growth inhibition (GI)” value with HepG2 came out at 39.19%. As to `CCCN1C(=O)C(C)c2cc(C(=O)CN3CCN(c4noc5cc(Cl)ccc45)CC3)ccc21` (centres undefined), the MIC in assay [1] is 3.12 µg/mL (≈ 6.68 µM).

In turn, `COc1ccc(NC(=S)NC(Cc2ccccc2)C(=O)N2CCCC2C(=O)N2CCC(c3noc4cc(F)ccc34)CC2)cc1` (centres undefined) yielded an IC50 in assay [6] of 4900 nM.

Regarding `O=C(c1ccccc1)c1onc2ccccc12`, in the assay with Geotrichum candidum, inhibition of growth (MIC) required 44.8 µM (≈ 10 µg/mL). `Fc1ccc2c(C3CCN(CCN4CCCCC4)CC3)noc2c1`: the IC50 against Acetylcholinesterase [3] stood at 1500 nM; against Acetylcholinesterase [4], 1290 nM; at Acetylcholinesterase [5], 2220 nM. As to `CCCN1C(=O)Cc2cc(C(=O)CN3CCN(c4noc5ccccc45)CC3)ccc21`, 3.12 µg/mL (≈ 7.46 µM) was the least that counted as inhibitory in [1] (MIC).

`O=C(Nc1ccccc1)c1onc2ccccc12` returned a minimal inhibitory concentration (MIC) against Geotrichum candidum of 840 µM (≈ 200 µg/mL). On to `O=C(N1CCOCC1)N1CCC(c2noc3cc(F)ccc23)CC1`, for which the “growth inhibition (GI)” value with HepG2 is reported as 37.75%.
